Assay: Study on solid stability of crystal form P (high temperature, high humidity, light, accelerated conditions; XRPD and HPLC)
Type: physicochemical
Procedure: In order to evaluate the solid stability of the crystal form P, the crystal form P was investigated for influence factors (high temperature, high humidity and light), stability under accelerated conditions and stability under intermediate conditions. The crystal form P was placed at high temperature (60° C., closed), high humidity (room temperature, 92.5% RH, sealing film wrapping and pricking 5-10 small holes) for 5 days and 10 days, then placed under visible light and ultraviolet light (a light-shielding control group was wrapped by tinfoil paper) according to ICH conditions (visible light illumination reached 1.2E+06 Lux hrs, ultraviolet light illumination reached 200 W·hrs/m) in a closed manner, and meanwhile, placed with stability under accelerated conditions ([…]/75% RH, sealing film wrapping and pricking 5-10 small holes) for 10 days and 1-2 months.

[1] = 92.5% RH, room temperature, Day 5
[2] = 92.5% RH, room temperature, Day 10
[3] = Light-shielding control group, taken simultaneously with the visible light + ultraviolet groups
[4] = Light-shielding control group, taken simultaneously with the visible light group
[5] = Visible + ultraviolet (ICH), illumination reaches 200 W · hrs/m^2
[6] = Visible light (ICH), illumination reaches 1.2E+06 Lux · hrs

CC1(NC(=O)C(=O)c2c(Cl)c(C(=O)Nc3cc(F)c(F)c(F)c3)c3n2CCC3)CCC(CC(=O)O)CC1 (centres unmarked) [crystal form P]
99.9%: Relative purity [4]
100.0%: Relative purity (60° C., closed, Day 5) | Relative purity (60° C., closed, Day 10) | Relative purity (60° C./75% RH, 1 month) | Relative purity (60° C./75% RH, Day 10) | Relative purity (60° C./75% RH, Month 2) | Relative purity [1] | Relative purity [2] | Relative purity [3] | Relative purity [5] | Relative purity [6]
Unchanged: Crystal form change (60° C., closed, Day 5) | Crystal form change (60° C., closed, Day 10) | Crystal form change (60° C./75% RH, 1 month) | Crystal form change (60° C./75% RH, Day 10) | Crystal form change (60° C./75% RH, Month 2) | Crystal form change [1] | Crystal form change [2] | Crystal form change [3] | Crystal form change [4] | Crystal form change [5] | Crystal form change [6]
unchanged: Crystal form change (under all stability conditions)

— patent US20230026869A1, “CRYSTAL FORM OF NUCLEOPROTEIN INHIBITOR AND USE THEREOF” (CHIA TAI TIANQING PHARMACEUTICAL GROUP CO., LTD., priority 2019, published 2023)
